Data: US9795585B2, “Methods of using L-butylphthalide for the prevention and treatment of cerebral ischemia disease” (priority 2004, dated 2017)
Where “and” joins values, the source holds several entries; their conditions need not be identical. Identical values can stand only once.

How the values were obtained:
[1] = tested on: cerebral edema induced by cerebral artery ligation in rats; assay: Cerebral edema induced by ligation of right middle cerebral artery; type: in vivo, male Wistar rats
Protocol: Experimental Animals: the same as Example 1. Experimental Equipments: Oxygen analyzer. Experimental Methods: Cerebral edema was induced by the ligation of right middle cerebral artery of rats. After 15 minutes, dl-, d-, and l-NBP (40 and 80 mg/kg) were orally administered. The rats were sacrificed after 24 hours. The forebrain was removed, and the cerebral hemispheres on the left and right side were weighed. Dry weight was obtained by baking for 24 hours under 100° C. The weight of water in the brain tissue was thus calculated by subtracting of dry weight from wet weight. Then, the tissues was nitrified for 4 hours, and pH was adjusted by using HCl. Next, the ion selective electrode was connected onto the oxygen analyzer, and the concentrations of Na^+ and K^+ in the brain tissue were measured.

[2] = tested on: cerebral injury-induced cerebral ischemia in rats; assay: Neural symptoms induced by cerebral injury in rats; type: in vivo, male Wistar rats; details: 50 mg/kg oral 5 minutes after cerebral injury; scored after 24 hours; vs vehicle control
Protocol: Experimental Animals: male Wistar rats
Experimental Methods: Cerebral injury in rats was caused by allowing a cone-shaped metal object weighing 220 g to freely fall from a position of 30 cm height and to strike the skull cap behind the left coronal suture. dl-, d-, and l-NBP (50 mg/kg) and the vehicle (control group) were orally administered after 5 minutes, and the behavioral changes were scored after 24 hours.

[3] = tested on: ischemic region (corpus striatum) of rats with blocked cerebral artery; assay: Focal cerebral blood flow after ligation of cerebral artery (method of Tamura); type: in vivo, Male wistar rats
Protocol: Experimental Animals: Male wistar rats.
Experimental Equipments: SXP operating microscope, 62TZ-V model high frequency electrotome, solid positioner, Diamond Electro-Tech chemical microsensor 1231, two channel physiological parameter recorder.
Experimental Methods: • (1) dl-, d-, and l-NBP (15 and 30 mg/kg) and the vehicle were orally administered to the normal rats, and the changes of cerebral blood flow at different time after the administration were measured. • (2) ligation of cerebral artery was conducted on rats according to the method of Tamura. Oral administration was performed at 10 min after the operation. The rats were divided into 9 groups, which were normal group, pseudo-operation group, vehicle control group, and groups of dl-, d-, and l-NBP (15 and 30 mg/kg).

[4] = tested on: cerebral apoplexy in spontaneous hypertension rats; assay: Cerebral apoplexy in salt-loaded spontaneous hypertensive rats; type: in vivo
Protocol: Experimental Animals: spontaneous hypertensive rats of 6 weeks old. Experimental Methods: Spontaneous hypertensive rats of 6 weeks old were divided into 8 groups with 10 rats per group. 0.8 to 0.9 g per day of common salt was administered starting from week 6. […] The scores of neurological deficit and the time of death were recorded.

[5] = tested on: ischemic brain of decapitated mice; assay: Ischemic cerebral metabolism of energy induced by decapitation of mice; type: in vivo, KunMing mice; details: NBP 50 and 100 mg/kg oral, sodium Phenobarbital 225 mg/kg ip.; decapitated 30 minutes after administration; 15 seconds ischemia; vs control group
Protocol: Experimental Animals: KunMing mice.
Test drug: injectable L-butylphthalide was formulated into an emulsion with Tween-80.
Experimental Methods: KunMing mice of 10 to 22 g were divided into 8 groups with 10 mice per group. dl-, d-, and l-NBP (50 and 100 mg/kg/d), sodium Phenobarbital (225 mg/kg ip.) and the vehicle were orally administered. Thirty minutes after administration, the mice were decapitated.
The time between the decapitation and homogenation, which was 15 seconds, was regarded as cerebral ischemic time. Centrifugation and isolation were conducted by the method of Folbergrova, and the contents of lactic acid, ATP and PCr were determined by enzymological method.

[6] = tested on: cerebral ischemia-reperfusion rats; assay: Behavioral disorder and cerebral infarct area in cerebral ischemia-reperfusion rats (MCAO by nylon suture, 1.5 h); type: in vivo, male Wistar rats; details: for neurological deficit scores (effect in words) / potency on neurological deficit scores compared among l, dl and d-NBP: 24 hours after intravenous injection; for reduction of cerebral infarct area / ED50 (cerebral infarct area): i.v., vs model control group; for cerebral infarct area (effect in words): intravenous administration, effect increases with dose
Excerpt: Experimental Animal: The same as Example 1
Experimental Equipments: The same as Example 7
Experimental Methods: The rats were anesthetized, and fixed in lateral decubitus position. Under the operating microscope, a midline neck skin incision was made to expose the left common cartotid artery. The surrounding nerves and fascia from the bifurcation of common carotid artery to the vascular of basis cranii were removed.
The internal carotid artery was then separated and carefully separated free from vagus nerve. Pterygopalatine artery was ligated at the root of the internal carotid artery. A 6# needle for injection containing 3# nylon suture (diameter of 0.285 mm) was punctured into the free end of the external carotid artery, advancing the nylon suture into the blood vascular. The needle was carefully withdrawn, and the nylon suture was guided into the internal carotid artery from the distal end of the external carotid artery up till to Willis ring, so as to effectively block the middle cerebral artery.
Depending on the body weight, the distance from the inserted nylon suture to the bifurcation of common carotid artery was 18 to 20 mm. The free end of the external carotid artery and the nylon suture therein were ligated together, in order to prevent bleeding. The muscle and the skin were then sutured layer by layer, and penicillin was dropped to prevent infection. To effectively block the middle cerebral artery, the tip of the nylon suture was made round by burning with the flame, and coated with 0.1% of poly-L-lysine. The nylon suture was baked in a 60° C. oven for 1 hour.
Due to the ability of poly-L-lysine to binding the cell and the protein to the plastic surface, and thus allow the negative charged nylon suture changing into a positive charged one and attract the anion ionic part of the endothelial cell, the nylon suture was closely bond to the endothelial surface, so as to prevent the leakage of the blood from the surrounding of the suture. Only the internal carotoid artery was separated from the animals of pseudo-operation group.
At 1.5 hours after the initiation of MCAO, the nylon suture within the lumen of the internal carotoid artery was carefully withdrawn, and the internal carotoid artery was allowed to reperfusion. The rats were then placed back into the cage.

[7] = 40 and 80 mg/kg oral 15 minutes after ligation, sacrificed after 24 hours
[8] = 25 and 50 mg/kg/d oral until 3 weeks after apoplexy, dose-dependent

Structure (SMILES)	content of K+ in the brain [1, 7]	content of Na+ in the brain [1, 7]	content of water in the brain [1, 7]	neural symptoms (behavioral changes scored) [2]	content of ATP in the brain [5]	content of PCr in the brain [5]	content of lactic acid in the brain [5]	neurological deficit scores (effect in words) [6]	potency on neurological deficit scores compared among l, dl and d-NBP [6]	reduction of cerebral infarct area ([6]; first of three doses)	ED50 (cerebral infarct area) [6]	cerebral infarct area (effect in words) [6]	reduction of cerebral infarct area ([6]; second of three doses)	reduction of cerebral infarct area ([6]; third of three doses)	also measured
CCCCC1OC(=O)c2ccccc21 (racemic) [dl-NBP, butylphthalide]	no significant effect	no significant effect	no significant effect	no significant effect	no such significant effect	no such significant effect	no such significant effect	improvement	no significant difference	37.9% and 34.8%	5.5 mg/kg and 5.7 mg/kg	significantly reduce	48.5% and 46.5%	59.2% and 60.9%	content of Na+ in the brain ([1]; 80 mg/kg oral, decrease seen): no statistical significance; content of water in the brain ([1]; 80 mg/kg oral, decrease seen): no statistical significance; content of K+ in the brain ([1]; 80 mg/kg oral, increase seen): no statistical significance; focal blood flow in the corpus striatum on the side of the blocked cerebral artery ([3]; 30 mg/kg oral 10 min after operation, similar increase seen): no statistical significance; preventive and therapeutic effect on cerebral apoplexy (overall) ([4]; 25 and 50 mg/kg/d oral): merely had such effect at relatively high doses
CCCC[C@@H]1OC(=O)c2ccccc21 [l-NBP, L-butylphthalide]	increase	significantly decrease	significantly decrease	significantly reduced	increased	increased	significantly decreased	improvement	no significant difference	40.8%	3.8 mg/kg	significantly reduce	57.0%	68.5%	focal blood flow in the corpus striatum on the side of the blocked cerebral artery ([3]; 15 and 30 mg/kg oral 10 min after operation, vs vehicle control, dose-dependent): significantly increase; time of the occurrence of cerebral apoplexy ([4]; 25 and 50 mg/kg/d oral from week 8, vs vehicle control): significantly delay; neurological deficit after cerebral apoplexy [4, 8]: reduce; viability after the occurrence of cerebral apoplexy [4, 8]: significantly increase; effect on cerebral infarct area relative to d-NBP ([6]; as calculated by ED50): about 1.5 times
